Source: patent US20120135009A1, “Cleaved and Phosphorylated CRMP2 as Blood Marker of Inflammatory Diseases of the Central Nervous System” (priority 2009, published 2012)

System: Jurkat T-cells
Assay: CRMP2 polarization in Jurkat cells adhering to collagen I-coated slides (immunofluorescence)
Assay type: cell-based
Protocol: The CRMP2 forms, Yes kinase and intermediary filament vimentin were detected by indirect immunofluorescence on Jurkat and primary T-cells adhered to collagen I-coated slides (20 μg/ml) and fixed following treatment (acetone −20° C.; 10 min). Cells were incubated with specific antibody (1 h, 37° C.) then with Alexa 488- or 546-conjugated anti-mouse or anti-rabbit or anti-sheep IgG antibodies (1 h, 37° C.) and examined using the Axioplan II fluorescence microscope (Carl Zeiss). Nuclear counter-staining was performed using a fluorescent DNA intercalant, 4′, 6′-diamidino-2-phenylindole (DAPI, Boehringer Mannheim).
To define a link between chemokines and CRMP2, the inventors first examined the localization of CRMP2 in Jurkat T-cells under CXCL12 signaling. They used two different anti-CRMP2 antibodies (anti-C-ter and anti-pep4) that recognize the full-length and cleaved products of CRMP2. […] This phenomenon of CRMP2 polarization was still observed after 30 minutes of treatment. […] In addition CRMP2 distribution to the uropod was concomitant with the re-localization of vimentin, which was quickly redistributed at the trailing edge of polarizing T-cells.

Compound | decrease of CXCL12-induced CRMP2 re-localization (Jurkat cells treated with CXCL12 (100 ng/mL) in the presence of AMD3100) [%] | increase of cells with polarized (asymmetrical) CRMP2 distribution (CXCL12 100 ng/mL, 2, 5 or 10 min, versus un-treated Jurkat T-cells) [fold]
c1cc(CN2CCCNCCNCCCNCC2)ccc1CN1CCCNCCNCCCNCC1 [AMD3100] | 35 | 
CXCL12: chemokine, stromal-derived-factor-1, ligand of the CXCR4 receptor |  | 1.6 to 2
